Source: patent publication US10167262B2, “Herbicidal substituted 3-arylpyrazoles” (FMC CORPORATION, priority 2014, dated 2019)

Columns and labels:
Assay type in all cases: in vivo
[1] = test system: chickweed (common chickweed, Stellaria media); assay: Test C postemergence greenhouse test, plant response rating 0-100
Summary of the method: (§1)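 Postemergence spray of formulated test chemicals on plants 2 to 18 cm tall (1- to 4-leaf stage) grown in peat/vermiculite medium. Greenhouse hold 13 to 15 days, then visual comparison with untreated controls on a 0-100 scale (0 no effect, 100 complete control); dash means no test result.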

kochia (Kochia scoparia) = assay: as above
Summary of the method: as §1

wild oat (Avena fatua) = assay: as above
Summary of the method: as §1

[2] = test system: giant foxtail (Setaria faberii); assay: Test C pre-/postemergence greenhouse test, plant response rating 0-100; details: Postemergence
Summary of the method: (§2)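 Plants were treated either at seeding (soil of loam and sand) or as 2–18 cm seedlings in a sphagnum peat mix, using test chemicals in a surfactant-containing non-phytotoxic solvent. Visual assessment relative to controls followed 13–15 days later.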

soybean (Glycine max) = assay: as above; details: Postemergence
Summary of the method: as §2

[3] = test system: Italian ryegrass (Lolium multiflorum); assay: as above; details: Postemergence
Summary of the method: as §2

[4] = test system: morningglory (Ipomoea spp.); assay: Test A pre-/postemergence greenhouse herbicide test, visual injury rating 0-100; details: 1000 g ai/ha
Summary of the method: (§3)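 Greenhouse plants received compound either as directed soil spray at planting or as postemergence spray at the one- to two-leaf stage (2–10 cm). Evaluated after about 10 days by visual comparison with untreated controls.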

corn (Zea mays) = assay: as above; details: 1000 g ai/ha
Summary of the method: as §3

[5] = test system: giant foxtail (Setaria faberii); assay: as above; details: 1000 g ai/ha
Summary of the method: as §3

[6] = test system: wheat (Triticum aestivum); assay: as above; details: 1000 g ai/ha
Summary of the method: as §3

[7] = test system: barnyardgrass (Echinochloa crus-galli); assay: as above; details: 1000 g ai/ha
Summary of the method: as §3

[8] = test system: pigweed (Amaranthus retroflexus); assay: as above; details: 1000 g ai/ha
Summary of the method: as §3

[9] = test system: large (Lg) crabgrass (Digitaria sanguinalis); assay: as above; details: 1000 g ai/ha
Summary of the method: as §3

[10] = test system: velvetleaf (Abutilon theophrasti); assay: as above; details: 1000 g ai/ha
Summary of the method: as §3

Fc1ccccc1NN=C(c1ccccc1)c1c[nH]nc1-c1cc(Cl)cc(Cl)c1 [Compound 57]
Plant response rating (0 to 100), Chickweed ([1]; 31 g ai/ha): 60 | Plant response rating (0 to 100), Chickweed ([1]; 62 g ai/ha): 100 | Plant response rating (0 to 100), Chickweed ([1]; 125 g ai/ha): 100 | Plant response rating, Chickweed ([1]; 250 g ai/ha, scale 0 to 100): 100 | Plant response rating (0 to 100), Kochia (kochia (Kochia scoparia); 62 g ai/ha): 65 | Plant response rating (0 to 100), Kochia (kochia (Kochia scoparia); 125 g ai/ha): 65 | Plant response rating, Kochia (kochia (Kochia scoparia); 250 g ai/ha, scale 0 to 100): 80 | Plant response rating (0 to 100), Oat, Wild (wild oat (Avena fatua); 62 g ai/ha): 0 | Plant response rating (0 to 100), Oat, Wild (wild oat (Avena fatua); 125 g ai/ha): 0 | Plant response rating, Oat, Wild (wild oat (Avena fatua); 250 g ai/ha, scale 0 to 100): 0 | Plant response rating (0 to 100), Foxtail, Giant ([2]; 31 g ai/ha): 0 | Plant response rating (0 to 100), Foxtail, Giant ([2]; 62 g ai/ha): 0 | Plant response rating (0 to 100), Foxtail, Giant ([2]; 125 g ai/ha): 0 | Plant response rating, Foxtail, Giant ([2]; 250 g ai/ha, scale 0 to 100): 5 | Plant response rating (0 to 100), Soybean (soybean (Glycine max); 62 g ai/ha): 0 | Plant response rating (0 to 100), Soybean (soybean (Glycine max); 125 g ai/ha): 0 | Plant response rating, Soybean (soybean (Glycine max); 250 g ai/ha, scale 0 to 100): 0 | Plant response rating (0 to 100), Ryegrass, Italian ([3]; 62 g ai/ha): 0 | Plant response rating (0 to 100), Ryegrass, Italian ([3]; 125 g ai/ha): 0 | Plant response rating, Ryegrass, Italian ([3]; 250 g ai/ha, scale 0 to 100): 0 | Plant response rating (0 to 100 scale), Morningglory ([4]; Postemergence): 0 | Plant response rating (0 to 100 scale), Morningglory ([4]; Preemergence): 0 | Plant response rating (0 to 100 scale), Corn (corn (Zea mays); Postemergence): 0 | Plant response rating (0 to 100 scale), Corn (corn (Zea mays); Preemergence): 0 | Plant response rating (0 to 100 scale), Foxtail, Giant ([5]; Postemergence): 0 | Plant response rating (0 to 100 scale), Foxtail, Giant ([5]; Preemergence): 0 | Plant response rating (0 to 100 scale), Wheat ([6]; Postemergence): 0 | Plant response rating (0 to 100 scale), Wheat ([6]; Preemergence): 0 | Plant response rating (0 to 100 scale), Barnyardgrass ([7]; Postemergence): 0 | Plant response rating (0 to 100 scale), Barnyardgrass ([7]; Preemergence): 0 | Plant response rating (0 to 100 scale), Pigweed ([8]; Postemergence): 90 | Plant response rating (0 to 100 scale), Pigweed ([8]; Preemergence): 90 | Plant response rating (0 to 100 scale), Crabgrass, Large ([9]; Postemergence): 0 | Plant response rating (0 to 100 scale), Crabgrass, Large ([9]; Preemergence): 0 | Plant response rating (0 to 100 scale), Velvetleaf ([10]; Postemergence): 100 | Plant response rating (0 to 100 scale), Velvetleaf ([10]; Preemergence): 80
